Assay results: patent US5292733A, “Cephalosporin compounds” (Lucky Limited, priority 1991, dated 1994)
Converted amounts (≈) assume the structure as drawn.

Assays:
Assay in all cases: Antibacterial activity MIC, two-fold agar dilution
Format in all cases: cell-based
[1] = tested on: Enterobacter aerogenes ATCC 29751; conditions: Klebsiella aerogenes, ATCC29751; Enterobacter aerogenes ATCC 29751; Muller-Hinton agar, 37° C., 20 hours; read-out: Antibacterial Activity MIC
Procedure: (§1) These MIC values were taken by employing a two-fold dilution method: that is, two-fold serial dilutions of each of the test compounds were made and dispersed in a Muller-Hinton agar medium; 2 μl of the standard test strain which had the 10^7 CFU(Colony Forming Unit) per ml was inoculated on the medium; and these were incubated at 37° C. for 20 hours. The results of the MIC tests are shown Table 1.

[2] = tested on: Staphylococcus epidermidis ATCC 12228; conditions: ATCC12228; Staphylococcus epidermidis ATCC 12228; Muller-Hinton agar, 37° C., 20 hours; read-out: Antibacterial Activity MIC
Procedure: as §1

[3] = tested on: Bacillus megaterium ATCC 9885; conditions: Priestia megaterium, ATCC9885; Bacillus megaterium ATCC 9885; Muller-Hinton agar, 37° C., 20 hours; read-out: Antibacterial Activity MIC
Procedure: as §1

[4] = tested on: Shigella flexneri ATCC 11836; conditions: ATCC11836, Muller-Hinton agar, 37° C., 20 hours
Procedure: as §1

[5] = tested on: Pseudomonas aeruginosa ATCC 10145; conditions: ATCC10145; Pseudomonas aeruginosa ATCC 10145; Muller-Hinton agar, 37° C., 20 hours; read-out: Antibacterial Activity MIC
Procedure: as §1

[6] = tested on: Staphylococcus aureus ATCC 10537; conditions: ATCC10537; Staphylococcus aureus ATCC 10537; Muller-Hinton agar, 37° C., 20 hours; read-out: Antibacterial Activity MIC
Procedure: as §1

[7] = tested on: Streptococcus faecalis ATCC 29212; conditions: Enterococcus faecalis, ATCC29212; Streptococcus faecalis ATCC 29212; Muller-Hinton agar, 37° C., 20 hours; read-out: Antibacterial Activity MIC
Procedure: as §1

[8] = tested on: Providencia rettgeri ATCC 9250; conditions: ATCC9250, Muller-Hinton agar, 37° C., 20 hours
Procedure: as §1

[9] = tested on: Staphylococcus aureus ATCC 6538p; conditions: ATCC6538P; Staphylococcus aureus ATCC 6538p; Muller-Hinton agar, 37° C., 20 hours; read-out: Antibacterial Activity MIC
Procedure: as §1

[10] = tested on: Pseudomonas aeruginosa ATCC 27853; conditions: ATCC27853; Pseudomonas aeruginosa ATCC 27853; Muller-Hinton agar, 37° C., 20 hours; read-out: Antibacterial Activity MIC
Procedure: as §1

[11] = tested on: Citrobacter freundii ATCC 8090; conditions: ATCC8090; Citrobacter freundii ATCC 8090; Muller-Hinton agar, 37° C., 20 hours; read-out: Antibacterial Activity MIC
Procedure: as §1

[12] = tested on: Enterobacter cloacae ATCC 27508; conditions: ATCC27508; Enterobacter cloacae ATCC 27508; Muller-Hinton agar, 37° C., 20 hours; read-out: Antibacterial Activity MIC
Procedure: as §1

[13] = tested on: Salmonella typhimurium ATCC 14028; conditions: Salmonella enterica; Salmonella typhimurium ATCC 14028; Muller-Hinton agar, 37° C., 20 hours; read-out: Antibacterial Activity MIC
Procedure: as §1

[14] = tested on: Bacillus cereus ATCC 11778; conditions: ATCC11778; Bacillus cereus ATCC 11778; Muller-Hinton agar, 37° C., 20 hours; read-out: Antibacterial Activity MIC
Procedure: as §1

[15] = tested on: Shigella sonnei ATCC 11060; conditions: ATCC11060, Muller-Hinton agar, 37° C., 20 hours
Procedure: as §1

[16] = tested on: Escherichia coli ATCC 10536; conditions: ATCC10536, Muller-Hinton agar, 37° C., 20 hours
Procedure: as §1

[17] = tested on: Pseudomonas aeruginosa ATCC 25619; conditions: ATCC25619; Pseudomonas aeruginosa ATCC 25619; Muller-Hinton agar, 37° C., 20 hours; read-out: Antibacterial Activity MIC
Procedure: as §1

[18] = tested on: Serratia marcescens ATCC 27117; conditions: ATCC27117; Serratia marcescens ATCC 27117; Muller-Hinton agar, 37° C., 20 hours; read-out: Antibacterial Activity MIC
Procedure: as §1

[19] = tested on: Klebsiella pneumoniae ATCC 10031; conditions: ATCC10031; Klebsiella pneumoniae ATCC 10031; Muller-Hinton agar, 37° C., 20 hours; read-out: Antibacterial Activity MIC
Procedure: as §1

[20] = tested on: Acinetobacter calcoaceticus ATCC 15473; conditions: ATCC15473; Acinetobacter calcoaceticus ATCC 15473; Muller-Hinton agar, 37° C., 20 hours; read-out: Antibacterial Activity MIC
Procedure: as §1

[21] = tested on: Micrococcus luteus ATCC 9341; conditions: ATCC9341; Micrococcus luteus ATCC 9341; Muller-Hinton agar, 37° C., 20 hours; read-out: Antibacterial Activity MIC
Procedure: as §1

[22] = tested on: Escherichia coli ATCC 25922; conditions: ATCC25922, Muller-Hinton agar, 37° C., 20 hours
Procedure: as §1

[23] = tested on: Proteus vulgaris ATCC 6059; conditions: ATCC6059; Proteus vulgaris ATCC 6059; Muller-Hinton agar, 37° C., 20 hours; read-out: Antibacterial Activity MIC
Procedure: as §1

[24] = tested on: Proteus mirabilis ATCC 25933; conditions: ATCC25933; Proteus mirabilis ATCC 25933; Muller-Hinton agar, 37° C., 20 hours; read-out: Antibacterial Activity MIC
Procedure: as §1

[25] = tested on: Morganella morganii ATCC 8076h; conditions: ATCC8076H, Muller-Hinton agar, 37° C., 20 hours
Procedure: as §1

SMILES	MIC [1]	MIC [2]	MIC [3]	MIC [4]	MIC [5]	MIC [6]	MIC [7]	MIC [8]	MIC [9]	MIC [10]	MIC [11]	MIC [12]	MIC [13]	MIC [14]	MIC [15]	MIC [16]	MIC [17]	MIC [18]	MIC [19]	MIC [20]	also measured
CC[n+]1c(N)nc(N)nc1SCC1=C(C(=O)[O-])N2C(=O)C(NC(=O)/C(=N\OC(C)(C)C(=O)O)c3csc(N)n3)[C@H]2SC1 (stereo partly drawn) [Compound I-24, 7-[(Z)-2-(2-aminothiazol-4-yl) -2-(2-carboxyprop-2-oxyimino)acetamido]-3-(4,6-diamino-1-ethyl-1,3,5-triazinium-2-yl)thiomethyl-3-cephem-4-carboxylate]	2 µg/mL (≈ 3.13 µM)	2 µg/mL (≈ 3.13 µM)	0.5 µg/mL (≈ 0.783 µM)	0.063 µg/mL (≈ 0.0986 µM)	2 µg/mL (≈ 3.13 µM)	2 µg/mL (≈ 3.13 µM)	> 128 µg/mL	≤ 0.008 µg/mL	4 µg/mL (≈ 6.26 µM)	1 µg/mL (≈ 1.57 µM)	0.13 µg/mL (≈ 0.204 µM)	0.031 µg/mL (≈ 0.0485 µM)	0.13 µg/mL (≈ 0.204 µM)	> 128 µg/mL	0.063 µg/mL (≈ 0.0986 µM)	0.13 µg/mL (≈ 0.204 µM)	1 µg/mL (≈ 1.57 µM)	0.13 µg/mL (≈ 0.204 µM)	0.063 µg/mL (≈ 0.0986 µM)	4 µg/mL (≈ 6.26 µM)	MIC [21]: 1 µg/mL (≈ 1.57 µM); MIC [22]: 0.063 µg/mL (≈ 0.0986 µM); MIC [23]: 0.063 µg/mL (≈ 0.0986 µM); MIC [24]: 0.063 µg/mL (≈ 0.0986 µM); MIC [25]: ≤ 0.008 µg/mL
CCO/N=C(\C(=O)N[C@@H]1C(=O)N2C(C(=O)[O-])=C(CSc3cc(N)nc(N)[n+]3C)CS[C@H]12)c1nsc(N)n1 [Compound I-5, (6R,7R)-7-[(Z)-2-(5-amino-1,2,4-thiadiazol-3-yl)-2-(ethoxyimino)acetamido]-3-(2,6-diamino-3-methylpyrimidinium-4-yl)thiomethyl-3-cephem-4-carboxylate]	0.5 µg/mL (≈ 0.882 µM)	0.5 µg/mL (≈ 0.882 µM)	0.13 µg/mL (≈ 0.229 µM)	0.063 µg/mL (≈ 0.111 µM)	32 µg/mL (≈ 56.5 µM)	1 µg/mL (≈ 1.76 µM)	> 128 µg/mL	≤ 0.008 µg/mL	2 µg/mL (≈ 3.53 µM)	16 µg/mL (≈ 28.2 µM)	0.25 µg/mL (≈ 0.441 µM)	0.016 µg/mL (≈ 0.0282 µM)	0.5 µg/mL (≈ 0.882 µM)	64 µg/mL (≈ 113 µM)	0.25 µg/mL (≈ 0.441 µM)	0.13 µg/mL (≈ 0.229 µM)	2 µg/mL (≈ 3.53 µM)	0.5 µg/mL (≈ 0.882 µM)	0.016 µg/mL (≈ 0.0282 µM)	8 µg/mL (≈ 14.1 µM)	MIC [21]: 0.031 µg/mL (≈ 0.0547 µM); MIC [22]: 0.13 µg/mL (≈ 0.229 µM); MIC [23]: 0.031 µg/mL (≈ 0.0547 µM); MIC [24]: 0.061 µg/mL (≈ 0.108 µM); MIC [25]: ≤ 0.008 µg/mL
CC(O/N=C(\C(=O)N[C@@H]1C(=O)N2C(C(=O)[O-])=C(CSc3cc(N)[n+](C)c(N)n3)CS[C@H]12)c1csc(N)n1)C(=O)O (stereo partly drawn) [Compound I-19, (6R,7R)-7-[(Z)-2-(2-aminothiazol-4-yl)-2-(R,S-carboxyeth-1-oxyimino)acetamido]-3-(2,6-diamino-1-methylpyrimidinium-4-yl)thiomethyl-3-cephem-4-carboxylate]	1 µg/mL (≈ 1.64 µM)	4 µg/mL (≈ 6.56 µM)	0.25 µg/mL (≈ 0.41 µM)	0.016 µg/mL (≈ 0.0262 µM)	4 µg/mL (≈ 6.56 µM)	4 µg/mL (≈ 6.56 µM)	128 µg/mL (≈ 210 µM)	≤ 0.008 µg/mL	4 µg/mL (≈ 6.56 µM)	2 µg/mL (≈ 3.28 µM)	0.13 µg/mL (≈ 0.213 µM)	0.031 µg/mL (≈ 0.0508 µM)	0.25 µg/mL (≈ 0.41 µM)	128 µg/mL (≈ 210 µM)	0.25 µg/mL (≈ 0.41 µM)	0.13 µg/mL (≈ 0.213 µM)	1 µg/mL (≈ 1.64 µM)	0.25 µg/mL (≈ 0.41 µM)	0.063 µg/mL (≈ 0.103 µM)	8 µg/mL (≈ 13.1 µM)	MIC [21]: 0.5 µg/mL (≈ 0.82 µM); MIC [22]: 0.13 µg/mL (≈ 0.213 µM); MIC [23]: 0.25 µg/mL (≈ 0.41 µM); MIC [24]: 0.13 µg/mL (≈ 0.213 µM); MIC [25]: ≤ 0.008 µg/mL
